Values of other authors, collected in US20230028307A1, “TREATMENT OF NEUROLOGICAL DISORDERS WITH AVERMECTINS” (Equilibre BioPharmaceuticals BV, priority 2020, published 2023).

How the values were obtained:
[1] = system: episodes of epileptic attack; settings: patients suffering from onchoceriasis treated with ivermectin
[2] = humans, relatively large doses

Q: With ivermectin as the substance, how does the “episodes of epileptic attack” value [1] read?
A: reduced

Q: And the side effects [2]?
A: no significant side effects
